Laboratory results: patent publication US6630469B2, “5-HT7 receptor antagonists” (Bristol-Myers Squibb Company, priority 2000, dated 2003)
Several values for one entry are separate records, joined by “and”; a condition that tells them apart may be missing. Identical values can stand only once.

Each compound was assayed against T1, human 5-HT7 receptor (Homo sapiens, UniProt P34969) (assay: 5-HT7 Receptor Binding Assay). Conditions: membranes of CHO cells expressing human 5-HT7 receptor; 1 nM 3H-5-carboxamidotryptamine; 25° C., 60 minutes.
T1 construct: expressed in transfected cells; host or cells: CHO cells
Procedure: 5-HT7 Receptor Binding Assay
Membranes are prepared for binding using the human 5-HT7 receptor expressed in CHO cells. Cells are collected and ruptured using a dounce homogenizer. The cells are spun at 18000× g for 10 minutes and the pellet is resuspended in assay buffer, frozen in liquid nitrogen and kept at −80° C. until the day of the assay.
A total of 30 ug protein is used per well. The assay is carried out in 96-deep-well plates. The assay buffer is 50 mM HEPES. The membrane preparation is incubated at 25° C. for 60 minutes with 0.1 nM to 1000 nM test compound and 1 nM ^3H-5-carboxamidotryptamine. 10 uM serotonin is used as blocking agent to determine non-specific binding. The reaction is terminated by the addition of 1 ml of ice cold 5OmM HEPES buffer and rapid filtration through a Brandel Cell Harvester using Whatman GF/B filters. The filter pads are counted in an LKB Trilux liquid scintillation counter. IC50 values are determined using non-linear regression by Exel-fit.

T1 sequence (P34969 whole entry): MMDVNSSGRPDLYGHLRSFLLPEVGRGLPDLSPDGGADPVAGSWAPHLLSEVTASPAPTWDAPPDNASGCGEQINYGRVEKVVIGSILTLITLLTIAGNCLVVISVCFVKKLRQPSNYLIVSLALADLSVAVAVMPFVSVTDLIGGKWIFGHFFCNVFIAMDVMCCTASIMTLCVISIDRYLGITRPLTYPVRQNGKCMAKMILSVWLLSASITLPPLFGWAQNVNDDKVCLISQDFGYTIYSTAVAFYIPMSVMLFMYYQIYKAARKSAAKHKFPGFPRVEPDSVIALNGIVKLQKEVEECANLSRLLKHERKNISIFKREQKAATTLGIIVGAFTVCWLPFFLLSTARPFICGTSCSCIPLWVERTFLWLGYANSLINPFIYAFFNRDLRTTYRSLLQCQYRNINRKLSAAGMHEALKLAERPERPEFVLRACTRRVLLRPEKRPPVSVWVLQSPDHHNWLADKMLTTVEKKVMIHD

IC50, ≤ 50 nM:
C[C@H](Nc1nc(N)nc(NCCc2ccc(F)cc2)n1)c1ccc(Br)cc1 [Compound 70, N^2-[(1S)-1-(4-Bromophenyl)ethyl]-N^4-[2-(4-fluorophenyl)ethyl]-1,3,5-triazine-2,4,6-triamine]
C[C@H](Nc1nc(N)nc(NCCc2ccccc2F)n1)c1ccc([N+](=O)[O-])cc1 [Compound 76, N^2-[2-(2-Fluorophenyl)ethyl]-N^4-[(1S)-1-(4-nitrophenyl)ethyl]-1,3,5-triazine-2,4,6-triamine]
C[C@H](Nc1nc(N)nc(NCCc2ccc(F)cc2)n1)c1ccc([N+](=O)[O-])cc1 [Compound 74, N^2-[2-(4-Fluorophenyl)ethyl]-N^4-[(1S)-1-(4-nitrophenyl)ethyl]-1,3,5-triazine-2,4,6-triamine]
Brc1cccc(CNc2ccnc(NCCc3ccccc3)n2)c1 [Compound 26, N^4-(3-Bromophenylmethyl)-N^2-(2-phenylethyl)pyrimidine-2,4-diamine]
C[C@H](Nc1nc(N)nc(NCCc2ccc(F)cc2)n1)c1ccc(F)cc1 [Example 17, N^2-[(1S)-1-(4-Fluorophenyl)ethyl]-N^4-[2-(4-fluorophenyl)ethyl]-1,3,5-triazine-2,4,6-triamine]
CC(Nc1ccnc(NCCc2cccs2)n1)c1ccccc1 (stereo not drawn) [Compound 29, N^4-(1-Phenylethyl)-N^2-[2-(2-thienyl)ethyl]pyrimidine-2,4-diamine]
Fc1ccc(CNc2ccnc(NCCOc3ccccc3)n2)cc1F [N^4-(3,4-Difluorophenylmethyl)-N^2-(2-phenoxyethyl)pyrimidine-2,4-diamine]
C[C@H](Nc1ccnc(NCCc2ccccc2)n1)c1ccccc1 [N^4-[(1S)-1-Phenylethyl]-N^2-(2-phenylethyl)pyrimidine-2,4-diamine]
C[C@H](Nc1nc(N)nc(NC[C@H]2C[C@@H]2c2ccccc2F)n1)c1ccccc1 [(S,S)-trans-N-[2-(2-Fluoro-phenyl)-cyclopropylmethyl]-N′-(1-phenyl-ethyl)-[1,3,5]triazine-2,4,6-triamine]
C[C@H](Nc1nc(N)nc(NCCc2ccc(F)cc2)n1)c1ccccc1 [Compound 64, N^2-[2-(4-Fluorophenyl)ethyl]-N^4-[(1S)-1-phenylethyl]-1,3,5-triazine-2,4,6-triamine]
Fc1ccc(CNc2ccnc(NCCc3ccccc3)n2)cc1F [N^4-(3,4-Difluorophenylmethyl)-N^2-(2-phenylethyl)pyrimidine-2,4-diamine]
C[C@H](Nc1nc(N)nc(NC[C@H]2C[C@@H]2c2ccc(F)cc2)n1)c1ccccc1 [(S,S)-trans-N-[2-(4-Fluoro-phenyl)-cyclopropylmethyl]-N′-(1-phenyl-ethyl)-[1,3,5]triazine-2,4,6-triamine]
C[C@H](Nc1ccnc(NCCOc2ccccc2)n1)c1ccccc1 [N^2-(2-Phenoxyethyl)-N^4-[(1S)-1-phenylethyl]pyrimidine-2,4-diamine]
c1ccc(OCCNc2nccc(NCc3cccnc3)n2)cc1 [Compound 20, N^2-(2-Phenoxyethyl)-N^4-(3-pyridinylmethyl)pyrimidine-2,4-diamine]
CC(Nc1ccnc(NCCn2ccc3ccccc32)n1)c1ccccc1 (stereo not drawn) [Compound 28, N^2-[2-(1H-Indol-1-yl)ethyl]-N^4-(1-phenylethyl)pyrimidine-2,4-diamine]
CC[C@H](Nc1ccnc(NCCc2ccccc2)n1)c1ccccc1 [N^2-(2-Phenylethyl)-N^4-[(1S)-1-phenylpropyl]pyrimidine-2,4-diamine]
CS(=O)(=O)Nc1cccc(CNc2ccnc(NCCOc3ccccc3)n2)c1 [Compound 14, N^4-{3-[(Methylsulfonyl)amino]phenylmethyl}-N^2-(2-phenoxyethyl)pyrimidine-2,4-diamine]
CC(Nc1ccnc(NCCc2ccc(F)cc2)n1)c1ccccc1 (stereo not drawn) [N^2-[2-(4-Fluorophenyl)ethyl]-N^4-(1-phenylethyl)pyrimidine-2,4-diamine]
C[C@H](Nc1nc(N)nc(NCCc2cccc(Cl)c2)n1)c1ccccc1 [Compound 62, N^2-[2-(3-Chlorophenyl)ethyl]-N^4-[(1S)-1-phenylethyl]-1,3,5-triazine-2,4,6-triamine]
C[C@H](Nc1nc(N)nc(NCCc2cccc(F)c2)n1)c1ccccc1 [Compound 61, N^2-[2-(3-Fluorophenyl)ethyl]-N^4-[(1S)-1-phenylethyl]-1,3,5-triazine-2,4,6-triamine]
CC[C@H](Nc1nc(N)nc(NCCc2ccccc2)n1)c1ccccc1 [Compound 65, N^2-2-Phenylethyl-N^4-[(1S)-1-phenylpropyl]-1,3,5-triazine-2,4,6-triamine]
C[C@H](Nc1cc(NCCc2ccc(O)cc2)ncn1)c1ccccc1 [N^4-[2-(4-Hydroxyphenyl)ethyl]-N^6-[(1S)-1-phenylethyl]pyrimidine-4,6-diamine]
CC(Nc1ccnc(NCCc2c[nH]c3cc(F)ccc23)n1)c1ccccc1 (stereo not drawn) [Compound 31, N^2-[2-(6-Fluoro-1H-indol-3-yl)ethyl]-N^4-(1-phenylethyl)pyrimidine-2,4-diamine]

IC50, ≤ 100 nM and > 50 nM:
CC(Nc1nc(N)nc(NC[C@@H]2C[C@H]2c2ccc(F)cc2)n1)c1ccccc1 (mixture of isomers) [(±)-trans-N-[2-(4-Fluoro-phenyl)-cyclopropylmethyl]-N′-(1-phenyl-ethyl)-[1,3,5]triazine-2,4,6-triamine]

IC50, 101 to 200 nM:
Fc1ccc(CNc2ccnc(NCCc3ccccc3)n2)cc1C(F)(F)F [N^4-[4-Fluoro-3-(trifluoromethyl)phenylmethyl]-N^2-(2-phenylethyl)pyrimidine-2,4-diamine]
Fc1cc(CNc2ccnc(NCCOc3ccccc3)n2)cc(C(F)(F)F)c1 [N^4-[3-Fluoro-5-(trifluoromethyl)phenylmethyl]-N^2-(2-phenoxyethyl)pyrimidine-2,4-diamine]
c1ccc(CCNc2nccc(NCc3ccncc3)n2)cc1 [N^2-(2-Phenylethyl)-N^4-(4-pyridinylmethyl)pyrimidine-2,4-diamine]
CC[C@H](Nc1nc(N)nc(NCC(C)c2ccccc2)n1)c1ccccc1 (stereo partly drawn) [Compound 35, N^2-[(1S)-1-Phenylpropyl]-N^4-(2-phenylpropyl)-1,3,5-triazine-2,4,6-triamine]
CC[C@H](Nc1nc(N)nc(NCCc2cccc(C(F)(F)F)c2)n1)c1ccccc1 [Compound 36, N^2-[(1S)-1-Phenylpropyl]-N^4-[2-(3-(trifluoromethyl)phenyl)ethyl]-1,3,5-triazine-2,4,6-triamine]
FC(F)(F)c1ccc(CNc2ccnc(NCCOc3ccccc3)n2)cc1 [N^2-(2-Phenoxyethyl)-N^4-[4-(trifluoromethyl)phenylmethyl]pyrimidine-2,4-diamine]
c1ccc(CCNc2nccc(NCc3ccco3)n2)cc1 [Compound 2, N^4-(2-Furanylmethyl)-N^2-(2-phenylethyl)pyrimidine-2,4-diamine]
Clc1cccc(CNc2ccnc(NCCc3ccccc3)n2)c1 [N^4-(3-Chlorophenylmethyl)-N^2-(2-phenylethyl)pyrimidine-2,4-diamine]

IC50, 51 to 100 nM:
Cc1ccc([C@@H](C)Nc2ccnc(NCCOc3ccccc3)n2)cc1 [N^4-[(1R)-1-(4-Methylphenyl)ethyl]-N^2-(2-phenoxyethyl)pyrimidine-2,4-diamine]
CC[C@H](Nc1nc(N)nc(NCCc2cccc(OC)c2)n1)c1ccccc1 [Compound 52, N^2-[2-(3-Methoxyphenyl)ethyl]-N^4-[(1S)-1-phenylpropyl]-1,3,5-triazine-2,4,6-triamine]
COc1cc(CCNc2nc(C)cc(N[C@@H](C)c3ccccc3)n2)cc(OC)c1 [N^2-[2-(3,5-Dimethoxyphenyl)ethyl]-6-methyl-N^4-[(1S)-1-phenylethyl]pyrimidine-2,4-diamine]
Fc1cccc(CNc2ccnc(NCCOc3ccccc3)n2)c1 [N^4-(3-Fluorophenylmethyl)-N^2-(2-phenoxyethyl)pyrimidine-2,4-diamine]
CC(Nc1ccnc(NCCCc2ccccc2)n1)c1ccccc1 (stereo not drawn) [N^4-(1-Phenylethyl)-N^2-(3-phenylpropyl)pyrimidine-2,4-diamine]
CC[C@@H](Nc1ccnc(NCCc2ccccc2)n1)c1ccccc1 [N^2-(2-Phenylethyl)-N^4-[(1R)-1-phenylpropyl]pyrimidine-2,4-diamine]
COc1ccccc1CCNc1nccc(NC(C)c2ccccc2)n1 (stereo not drawn) [N^2-[2-(2-Methoxyphenyl)ethyl]-N^4-(1-phenylethyl)pyrimidine-2,4-diamine]
NC(=O)c1cccc(CNc2ccnc(NCCOc3ccccc3)n2)c1 [Compound 6, N^4-[3-(Aminocarbonyl)phenylmethyl]-N^2-(2-phenoxyethyl)pyrimidine-2,4-diamine]
CC(Nc1nccc(NCCc2c[nH]c3ccccc23)n1)c1ccccc1 (stereo not drawn) [Compound 7, N^4-[2-(1H-Indol-3-yl)ethyl]-N^2-(1-phenylethyl)pyrimidine-2,4-diamine]
C[C@H](Nc1nc(N)nc(NCCc2ccc(Cl)cc2)n1)c1ccc([N+](=O)[O-])cc1 [Compound 59, N^2-[2-(4-Chlorophenyl)ethyl]-N^4-[(1S)-1-(4-nitrophenyl)ethyl]-1,3,5-triazine-2,4,6-triamine]
